One experiment deals with DU 145. The experiment in a line: Sphere-forming ability of cultured cancer cell lines (Test Example 10). The experiment is classed as cell-based. Particulars: Homo sapiens, 96 h; DU 145 prostate cancer cell line, 4 days. The method, then: (§1) The colon cancer cell lines SW480, DLD1, HCT15, HT29, SW948, LS174T, LS411N, SW620, LoVo, HCT116, Colo205, and Hs698T, the pancreatic cancer cell lines MiaPaca2, HPAFII, Capan2, and Panc1, the head and neck cancer cell line FaDu, the breast cancer cell lines HCC1954 and T47D, the bladder cancer cell line SW780, the liver cancer cell line HepG2, the neuroblastoma cell lines U87MG and U251, the lung cancer cell lines H460, H1437, and A549, the prostate cancer cell lines DU145 and PC3, the soft tissue tumor cell line HT1080, the testicular cancer cell line NTERA2, and the ovarian cancer cell line SKOV3 was suspended in the sphere formation medium (DMEM-F12 medium of Test Example 3 was used), and seeded in a 384-well plate with Ultra-Low Attachment surface (Corning) in an amount of 5×10^3-10×10^3 cells/well. The compound of Example 24 was then added into each well to adjust the final concentration to 10-10000 nmol/L. The plate was cultured at 37° C. and 5% carbon dioxide in an incubator for 4 days. After the culture, CellTiterGlo (Promega) was added into all of the wells, and the plate was allowed to stand at room temperature for 10 minutes to measure the intensity of luminescence of each well. The concentrations of each test compound for 50% inhibition of cell proliferation to the cell lines (Sphere IC50 value; μmol/L) was calculated from the measured intensity of luminescence. When each gene mutation in Table is reported, the mutation is represented by “+” (gene mutation information is cited from the ATCC website (https://www.atcc.org/en/Products/Cells_and_Microorganisms/Cell_Lines/Cell_lines_by_genetic_mutation.aspx), Cancer Cell Line Encyclopedia (https://portals.broadinstitute.org/ccle_legacy/home), Proc. Natl. Acad. Sci. USA 94 (1997) 10330-10334).

A further experiment relates to SK-OV-3. The experiment is described as above. Particulars: Homo sapiens, 96 h; SK-OV-3 ovarian cancer cell line, 4 days. The experiment is classed as cell-based. How it is done:
as §1

The test system of a further experiment is NCI-H1437. The description is as above. The format is cell-based. The settings on record: Homo sapiens, 96 h; NCI-H1437 lung cancer cell line, 4 days. How it is done: as §1
A further experiment concerns Panc-1. Described as above. The settings on record: Homo sapiens, 96 h; Panc-1 pancreatic cancer cell line, 4 days. The format is cell-based. The method, then:
as §1

The next experiment has as its system HCT-116 cells. Briefly: Test for inhibiting sphere-forming ability of cancer cells (Test Example 1). The experiment is classed as cell-based, human. Particulars: Homo sapiens, 96 h, non-adherent serum-free sphere culture, 4 days, CellTiter-Glo, read-out: IC50 (μmol/L), Sphere IC50 value, concentration for 50% inhibition of cell proliferation. The method, then: The reliable methods established for measuring the self-renewal ability of cells which is one of the CSC's properties include a method for measuring the sphere-forming ability of cancer cells in non-adherent condition in the absence of serum (Cancer Res 65, 5506-5511 (2005)). HCT-116 cells were available from the American Type Culture Collection (ATCC). HCT-116 cells were cultured at 37° C. and 5% CO2 using the McCoy's 5a medium containing 10% fetal bovine serum (FBS), 100 U/ml penicillin, and 100 μg/ml streptomycin. HCT-116 cells were seeded in a 384 Well Black Clear Bottom Ultra-Low Attachment Microplate (Corning Cat. No. 3827) in an amount of 350-800 cells/well using the DMEM/F12 medium containing 2% B27 supplement (GIBCO), 20 ng/mL epidermal growth factor (EGF) (peprotech), 10 ng/mL basic fibroblast growth factor (bFGF) (peprotech), 5 μg/mL insulin (Sigma), and 1% penicillin/streptomycin. The test compounds were added into each well to adjust the final concentration of DMSO to 0.1%, and the cells were cultured for 4 days. The number of viable cells in each well was then measured with CellTiter-Glo® Luminescent Cell Viability Assay (Promega) to calculate the concentration of each test compound for 50% inhibition of cell proliferation (Sphere IC50 value; μmol/L).
The experiment of Test Example 1 was performed for the compounds of each Example.
In general terms: ATP-based viability assays read luminescence as a measure of living cells.

Molecules are shown by their SMILES.

As for `O=C(Nc1cn(Cc2cc(F)c(F)c(F)c2)cn1)c1cnc(CO)c(C(F)F)c1` [Example 24, 5-(difluoromethyl)-6-(hydroxymethyl)-N-[1-(3,4,5-trifluorobenzyl)-1H-imidazol-4-yl]nicotinamide], the IC50 with DU 145 was greater than 10 µM; with SK-OV-3, greater than 10 µM; in the experiment with NCI-H1437, 3.88 µM; in the experiment with Panc-1, greater than 10 µM; in the experiment on HCT-116 cells, less than 0.01 µmol/L.

The values above are taken from patent publication US20200268728A1, “DRUG TARGETING CANCER STEM CELL” (Sumitomo Dainippon Pharma Co., Ltd., priority 2016, published 2020).
